A value given as a limit tells only on which side of the number the result lay.

For the first assay, the target named is RIPK1 (Homo sapiens (Human), UniProt Q13546). As to the kind of experiment: ADP-Glo kinase assay (RIPK1 activity, conversion of ATP to ADP). It is filed as biochemical. Conditions: 5 nM RIPK1, 50 μM ATP, 6 h reaction; footnote symbol (a); read-out: RIPK1 Enzyme Avg IC50. How it is done: In order to measure RIPK1 activity the ADP-Glo kinase assay (Promega, Catalog #V7002) was used to measure the conversion of ATP to ADP. This enzymatic assay was performed in a 384-well white, Optiplate (Perkin Elmer, Catalog #6007299) with assay buffer consisting of 50 mM HEPES pH 7.5 (Gibco, Catalog #15630-080), 50 mM NaCl (Teknova, Catalog #S0252), 30 mM MgCl2 (Ambion, Catalog #AM9530G), 1 mM DTT (Santa Cruz Biotechnology, Catalog #sc-29089), 0.05% BSA (Sigma, Catalog #A3059-50G) and 0.02% CHAPS (Sigma, Catalog #C5070-5G). Stock solutions of the test compounds were prepared in 100% DMSO (Sigma, Catalog #D2650) and serially diluted 1:3 using 100% DMSO. Compounds were additionally diluted 1:40 in assay buffer, and 2 μL/well were transferred to the assay plate. 4 μL/well (final concentration of 5 nM) of RIPK1 protein (SignalChem, Catalog #R07-1IG-05) diluted in assay buffer and added to the assay plate followed by a 10 minute preincutation at rt. 4 μL/well of ATP (Promega, Catalog #V7002) (final concentration of 50 μM) diluted in assay buffer were then added to the assay plate followed by a 6 h reaction time. Final concentrations of RIPK1 and ATP refer to a 10 μL volume. Luminescence was measured using a BioTek Synergy™ NEO plate reader. IC50 values were calculated using a four-parameter logistic curve fit using Genedata Screener software.
RIPK1, sequence (Q13546 1-327): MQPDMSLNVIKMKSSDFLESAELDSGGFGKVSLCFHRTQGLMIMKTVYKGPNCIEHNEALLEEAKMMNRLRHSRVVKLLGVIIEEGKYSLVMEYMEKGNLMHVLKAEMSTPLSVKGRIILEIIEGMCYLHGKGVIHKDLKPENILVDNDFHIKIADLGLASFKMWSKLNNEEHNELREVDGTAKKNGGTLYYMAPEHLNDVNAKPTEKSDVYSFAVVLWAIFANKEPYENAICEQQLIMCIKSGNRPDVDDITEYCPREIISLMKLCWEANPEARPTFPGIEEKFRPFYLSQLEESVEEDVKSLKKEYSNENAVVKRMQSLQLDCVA
(ADP-Glo turns the ADP formed in a reaction into a luminescent signal.)
For orientation: IC50 means the concentration that gives 50% inhibition. For the molecule `N#Cc1cc(OCC23CC(C(=O)N4CC[C@@H](Oc5cc(F)ccc5F)C4)(C2)C3)ncn1` [Example 39, (R)-6-((3-(3-(2,5-difluorophenoxy)pyrrolidine-1-carbonyl)-bicyclo[1.1.1]pentan-1-yl)methoxy)pyrimidine-4-carbonitrile], the IC50 was above 50000 nM.
On the same count and under the same terms, in the case of `Cc1cccc(C2CCCN2C(=O)C23CC(Nc4nccc(C#N)n4)(C2)C3)c1` (stereo not shown) [Example 105, 2-((3-(2-(m-tolyl)pyrrolidine-1-carbonyl)bicyclo[1.1.1]-pentan-1-yl)amino)-pyrimidine-4-carbonitrile] it was above 50000 nM; in that of `COC(=O)C12CC(C(=O)NCc3cc(F)cc(F)c3)(C1)C2` [Example 121, methyl 3-((3,5-difluoro-benzyl)carbamoyl)-bicyclo[1.1.1]pentane-1-carboxylate], above 50000 nM.
Still for that read-out and setting: in the case of `CCC(=O)NC12CC(C(=O)N3CCCC3c3cccc(C)c3)(C1)C2` (stereo not shown) [Example 118, N-(3-(2-(m-tolyl)pyrrolidine-1-carbonyl)bicyclo[1.1.1]-pentan-1-yl)propionamide] it was above 50000 nM; in that of `COC(=O)C12CC(C(=O)N3CC[C@@H](Oc4cc(F)ccc4F)C3)(C1)C2` [Example 37, Methyl (R)-3-(3-(2,5-difluorophenoxy)pyrrolidine-1-carbonyl)-bicyclo[1.1.1]pentane-1-carboxylate], above 50000 nM.
For `O=C(NCc1cc(F)cc(F)c1)C12CC(CO)(C1)C2` [Example 91, N-(3,5-difluorobenzyl)-3-(hydroxymethyl)bicyclo-[1.1.1]pentane-1-carboxamide], the half-maximal inhibitory concentration (IC50) was above 50000 nM.
On the same count and under the same terms, in the case of `N#CC12CC(C(=O)N3CCC(Oc4ccccc4)C3)(C1)C2` (stereo not shown) [Example 116, 3-(3-phenoxypyrrolidine-1-carbonyl)bicyclo[1.1.1]-pentane-1-carbonitrile] it was above 50000 nM.

The same assay, now with this note: 5 nM RIPK1, 50 μM ATP, 6 h reaction; read-out: RIPK1 Enzyme Avg IC50.
On to `O=C(N1N=CCC1c1cc(F)cc(F)c1)C12CC(Cn3ncc4cccc(Cl)c43)(C1)C2` (stereo not shown) [Example 69, (3-((7-chloro-1H-indazol-1-yl)methyl)bicyclo[1.1.1]-pentan-1-yl)(5-(3,5-difluoro-phenyl)-4,5-dihydro-1H-pyrazol-1-yl)methanone], for which the 50% inhibitory concentration (IC50) stood at 22 nM.
Turning to `N#Cc1cnc2cn(CC34CC(C(=O)N5N=CCC5c5cc(F)cc(F)c5)(C3)C4)nc2c1` (stereo not shown) [Example 222, 2-((3-(5-(3,5-difluorophenyl)-4,5-dihydro-1H-pyrazole-1-carbonyl)bicyclo[1.1.1]pentan-1-yl)methyl)-2H-pyrazolo[4,3-b]pyridine-6-carbonitrile], the IC50 worked out at 220 nM.
For `O=C(N1N=CCC1c1cc(F)cc(F)c1)C12CC(CN3CCOCC3)(C1)C2` (stereo not shown) [Example 13, (5-(3,5-Difluorophenyl)-4,5-dihydro-1H-pyrazol-1-yl)(3-(morpholinomethyl)bicyclo[1.1.1]pentan-1-yl)methanone], the IC50 turned out to be 1510 nM.
Take “(5-(3,5-difluorophenyl)-4,5-dihydro-1H-pyrazol-1-yl)(3-((3-methyl-1H-pyrazol-1-yl)methyl)bicyclo[1.1.1]-pentan-1-yl)methanone and (5-(3,5-difluorophenyl)-4,5-dihydro-1H-pyrazol-1-yl)(3-((5-methyl-1H-pyrazol-1-yl)methyl)bicyclo[1.1.1]-pentan-1-yl)methanone [Example 190]”: the IC50 was 30 nM.
As to `N#Cc1cnc(OCC23CC(C(=O)N4CC(F)CC4c4cccc(F)c4)(C2)C3)nc1` (stereo not shown) [Example 100, 2-((3-(4-fluoro-2-(3-fluorophenyl)pyrrolidine-1-carbonyl)bicyclo[1.1.1]-pentan-1-yl)methoxy)-pyrimidine-5-carbonitrile], the IC50 was determined as 284 nM.
In the case of `CN(C)C(=O)C12CC(C(=O)N3N=CCC3c3cc(F)cc(F)c3)(C1)C2` (stereo not shown) [Example 10, 3-(5-(3,5-Difluorophenyl)-4,5-dihydro-1H-pyrazole-1-carbonyl)-N,N-dimethylbicyclo[1.1.1]pentane-1-carboxamide], the IC50 stood at 2910 nM.
Take `N#Cc1ccc2nn(CC34CC(C(=O)N5N=CCC5c5cc(F)cc(F)c5)(C3)C4)cc2n1` (stereo not shown) [Example 180, 2-((3-(5-(3,5-difluorophenyl)-4,5-dihydro-1H-pyrazole-1-carbonyl)bicyclo[1.1.1]-pentan-1-yl)methyl)-2H-pyrazolo[4,3-b]pyridine-5-carbonitrile]: the IC50 was determined as 392 nM.
As to `O=C(N1N=CCC1c1cc(F)cc(F)c1)C12CC(CN3CC(F)(F)C3)(C1)C2` (stereo not shown) [Example 79, (3-((3,3-difluoroazetidin-1-yl)methyl)bicyclo[1.1.1]-pentan-1-yl)(5-(3,5-difluoro-phenyl)-4,5-dihydro-1H-pyrazol-1-yl)methanone], the IC50 was 425 nM.
Still for that read-out and setting: the same measure for “(5-(3,5-difluorophenyl)-4,5-dihydro-1H-pyrazol-1-yl)(3-((6-fluoro-2-methyl-1H-benzo[d]imidazol-1-yl)-methyl)bicyclo[1.1.1]pentan-1-yl)methanone and (5-(3,5-difluorophenyl)-4,5-dihydro-1H-pyrazol-1-yl)(3-((5-fluoro-2-methyl-1H-benzo[d]imidazol-1-yl)-methyl)bicyclo[1.1.1]pentan-1-yl)methanone [Example 188]”: 454 nM.
On to `O=C(N1N=CCC1c1ccccc1)C12CC(C1)C2` (stereo not shown) [Example 44, Bicyclo[1.1.1]pentan-1-yl(5-phenyl-4,5-dihydro-1H-pyrazol-1-yl)methanone], for which the half-inhibitory concentration (IC50) amounted to 38 nM.
Same read-out and setting: the same measure for `O=C(N1CC(F)CC1c1cccc(F)c1)C12CC(COc3cccc4nncn34)(C1)C2` (stereo not shown) [Example 103, (3-(([1,2,4]triazolo[4,3-a]-pyridin-5-yloxy)methyl)-bicyclo[1.1.1]pentan-1-yl)(4-fluoro-2-(3-fluorophenyl)-pyrrolidin-1-yl)methanone]: 2660 nM.
Take `O=C(N1CC(F)CC1c1cccc(F)c1)C12CC(C(O)c3ccccc3)(C1)C2` (stereo not shown) [Example 40, (4-Fluoro-2-(3-fluorophenyl)pyrrolidin-1-yl)(3-(hydroxy(phenyl)methyl)-bicyclo[1.1.1]pentan-1-yl)methanone]: the IC50 turned out to be 4450 nM.
In the case of `CP(C)(=O)c1cc(OCC23CC(C(=O)N4N=CCC4c4cc(F)cc(F)c4)(C2)C3)ncn1` (stereo not shown) [Example 17, (5-(3,5-Difluorophenyl)-4,5-dihydro-1H-pyrazol-1-yl)(3-(((6-(dimethylphosphoryl)pyrimidin-4-yl)oxy)methyl)bicyclo[1.1.1]pentan-1-yl)methanone], the 50% inhibitory concentration (IC50) turned out to be 570 nM.
With `O=C(N1N=CCC1c1cc(F)cc(F)c1)C12CC(CN3C(=O)C4(CC4)c4ccccc43)(C1)C2` (stereo not shown) [Example 125, 1′-((3-(5-(3,5-difluorophenyl)-4,5-dihydro-1H-pyrazole-1-carbonyl)-bicyclo[1.1.1]pentan-1-yl)methyl)-spiro[cyclopropane-1,3′-indolin]-2′-one], the IC50 was determined as 2800 nM.
Same read-out and setting: the same measure for `Cc1nnc(CC23CC(C(=O)N4N=CCC4c4cc(F)cc(F)c4)(C2)C3)o1` (stereo not shown) [Example 20, (5-(3,5-Difluorophenyl)-4,5-dihydro-1H-pyrazol-1-yl)(3-((5-methyl-1,3,4-oxadiazol-2-yl)methyl)bicyclo[1.1.1]pentan-1-yl)methanone]: 1110 nM; for `COCc1cn(CC23CC(C(=O)N4N=CCC4c4cc(F)cc(F)c4)(C2)C3)nn1` (stereo not shown) [Example 149, (5-(3,5-difluorophenyl)-4,5-dihydro-1H-pyrazol-1-yl)(3-((4-(methoxymethyl)-1H-1,2,3-triazol-1-yl)methyl)-bicyclo[1.1.1]pentan-1-yl)methanone]: 3930 nM; for “(5-(3,5-difluorophenyl)-4,5-dihydro-1H-pyrazol-1-yl)(3-((6-methoxy-1H-benzo[d]-imidazol-1-yl)methyl)-bicyclo[1.1.1]pentan-1-yl)-methanone and (5-(3,5-difluorophenyl)-4,5-dihydro-1H-pyrazol-1-yl)(3-((5-methoxy-1H-benzo[d]-imidazol-1-yl)methyl)-bicyclo[1.1.1]pentan-1-yl)-methanone [Example 187]”: 447 nM.
For `Cc1cccc(OCC23CC(C(=O)N4CC(F)CC4c4cccc(F)c4)(C2)C3)c1` (stereo not shown) [Example 108, (4-fluoro-2-(3-fluorophenyl)-pyrrolidin-1-yl)(3-((m-tolyloxy)methyl)bicyclo-[1.1.1]pentan-1-yl)methanone], the IC50 amounted to 206 nM.
Turning to `O=C(O)C12CC(C(=O)N3N=CCC3c3cc(F)cc(F)c3)(C1)C2` (stereo not shown) [Example 2, 3-(5-(3,5-Difluorophenyl)-4,5-dihydro-1H-pyrazole-1-carbonyl)-bicyclo[1.1.1]pentane-1-carboxylic acid], the IC50 worked out at 21200 nM.

A further assay relates to human monocytic cell line U937. As to the kind of experiment: Human U937 cellular necroptosis assay (TNFalpha + z-VAD-FMK, Cell Titer-Glo viability). Conditions: Homo sapiens, U-937, 22 h, U937 cells, 25 ng/mL human TNFalpha + 25 μM z-VAD-FMK, read-out: hU937 Avg IC50. The format is cell-based. Put shortly:
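Readout is CellTiter-Glo 2.0 luminescence after 22 h at 37° C with compound, in cells triggered by human TNFalpha (25 ng/mL) and z-VAD-FMK (25 μM) in phenol red-free RPMI/10% FBS. Values are run-averaged IC50s from a four-parameter logistic curve.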
(In general: In ATP-based viability assays light output follows the ATP content of the culture.)
Take `O=C(N1N=CCC1c1cc(F)cc(F)c1)C12CC(Cn3ncc4cccc(Cl)c43)(C1)C2` (stereo not shown) [Example 69, (3-((7-chloro-1H-indazol-1-yl)methyl)bicyclo[1.1.1]-pentan-1-yl)(5-(3,5-difluoro-phenyl)-4,5-dihydro-1H-pyrazol-1-yl)methanone]: the IC50 stood at 44 nM.
With `N#Cc1cnc2cn(CC34CC(C(=O)N5N=CCC5c5cc(F)cc(F)c5)(C3)C4)nc2c1` (stereo not shown) [Example 222, 2-((3-(5-(3,5-difluorophenyl)-4,5-dihydro-1H-pyrazole-1-carbonyl)bicyclo[1.1.1]pentan-1-yl)methyl)-2H-pyrazolo[4,3-b]pyridine-6-carbonitrile], the IC50 came to 1100 nM.
